# From US20070280972A1, “Adhesive solid gel-forming formulations for dermal drug delivery” (ZARS, Inc., priority 2006, published 2007)
# Where two headings read alike, the source gives them in different places.
# Legend:
# [1] = Estimated therapeutically sufficient flux (steady state flux of marketed products, in vitro)
# [2] = In vitro skin flux, Franz diffusion cell, hairless mouse skin; conditions: for steady state flux in solid gel-forming formulation compared with flux-enabling non-volatile solvent alone: Table 16 vs solvent tables; for Avg. Flux / Average Flux: mean and st. dev of three; for Skin Flux: excess drug, linear region 4-8 hours, mean ± SD of three
# [3] = In vitro skin flux, Franz diffusion cell, human epidermal membrane / human cadaver skin; assay type: in vitro ADME; conditions: for Skin Flux: 0.1% (w/w) clobetasol propionate, human cadaver skin (HEM), linear region 6-28 hours, mean ± SD of three
# [4] = as above; assay type: in vitro ADME; conditions: for duration over which steady-state delivery is shown: cumulative amount delivered across human cadaver skin from a solidified gel formulation (FIG. 1, FIG. 2)
# [5] = pH 7.4
# [6] = steady state flux of marketed product through hairless mouse or human epidermal membrane, method of Example 1, estimate
# [7] = non-volatile solvent system: Ethyl oleate, hairless mouse skin
# [8] = non-volatile solvent system: Isostearic acid, 200 mcL on hairless mouse skin
# [9] = non-volatile solvent system: Oleic acid, hairless mouse skin
# [10] = non-volatile solvent system: Polyethylene glycol 400, 200 mcL on hairless mouse skin
# [11] = non-volatile solvent: Polyethylene glycol 400, hairless mouse skin
# [12] = non-volatile solvent system: Glycerol, hairless mouse skin
# [13] = non-volatile solvent system: Propylene glycol, hairless mouse skin
# [14] = non-volatile solvent system: Span 20 (sorbitan laurate), hairless mouse skin
# [15] = non-volatile solvent system: Isopropyl myristate, hairless mouse skin
# [16] = solvents isopropyl myristate, ethyl oleate, propylene glycol, and Span 20, hairless mouse skin
compound,measurement,setting,value
"Nc1nc2c(ncn2COCCO)c(=O)[nH]1 [Acyclovir, acyclovir]",Estimated Therapeutically sufficient flux,[1]; [6],3 μg/cm^2/h
same,Estimated Therapeutically sufficient flux,"[1]; steady state flux of marketed product through hairless mouse or human epidermal membrane, method of Example 1, estimate, listed as acyclovir",about 3 μg/cm^2/h
same,steady state flux in solid gel-forming formulation compared with flux-enabling non-volatile solvent alone,[2]; hairless mouse skin,higher
same,Avg. Flux,"[2]; high flux-enabling non-volatile solvent: ISA + 30% trolamine, hairless mouse skin",7 ± 2 μg/cm2/h
same,Skin Flux,"[2]; non-volatile solvent system: Ethyl oleate + 10% trolamine, hairless mouse skin",0.2 ± 0.2 μg/cm^2/h
same,Skin Flux,[2]; [7],0.2 ± 0.2 μg/cm^2/h
same,Skin Flux,"[2]; non-volatile solvent system: Isostearic acid + 10% trolamine, hairless mouse skin",2.7 ± 0.6 μg/cm^2/h
same,Skin Flux,"[2]; non-volatile solvent system: Isostearic acid + 30% trolamine, hairless mouse skin",7 ± 2 μg/cm^2/h
same,Skin Flux,[2]; [8],0.1 ± 0.09 μg/cm^2/h
same,Skin Flux,"[2]; non-volatile solvent system: Oleic acid + 10% trolamine, hairless mouse skin",3.7 ± 0.5 μg/cm^2/h
same,Skin Flux,"[2]; non-volatile solvent system: Oleic acid + 30% trolamine, hairless mouse skin",14 ± 5 μg/cm^2/h
same,Skin Flux,[2]; [9],0.4 ± 0.3 μg/cm^2/h
same,Skin Flux,[2]; [10],0 μg/cm^2/h
same,Skin Flux,"[2]; non-volatile solvent system: Span 80 (sorbitan monooleate), hairless mouse skin",0.07 ± 0.03 μg/cm^2/h
same,Average Flux,"[2]; non-volatile solvent: Isostearic acid + 10% trolamine, hairless mouse skin",2.7 ± 0.6 μg/cm2/hr
same,Average Flux,[2]; [11],0 μg/cm2/hr
"CCC(=O)O[C@]1(C(=O)CCl)[C@@H](C)C[C@H]2[C@@H]3CCC4=CC(=O)C=C[C@]4(C)[C@@]3(F)[C@@H](O)C[C@@]21C [Clobetasol propionate, clobetasol propionate]",Average Flux,"[3]; all the neat non-volatile solutions studied, over a 30 hour time period, human cadaver skin",less than 50 ng/cm^2/hr
same,Average Flux,"[3]; non-volatile solvent: Isostearic acid (ISA), human epidermal membrane, mean and st. dev of three",0.019 ± 0.003 μg/cm2/hr
same,Average Flux,"[3]; non-volatile solvent: Light mineral oil, human epidermal membrane, mean and st. dev of three",0.031 ± 0.003 μg/cm2/hr
same,Average Flux,"[3]; non-volatile solvent: Propylene glycol, human epidermal membrane, mean and st. dev of three",0.0038 ± 0.0004 μg/cm2/hr
same,average flux relative to light mineral oil,[3]; propylene glycol and isostearic acid at a weight ratio of 9:1 vs light mineral oil,20 times
same,Skin Flux,[3]; solvent: Ethyl oleate,19.4 ± 1.6 ng/cm^2/h
same,Skin Flux,[3]; solvent: Glycerol,7.0 ± 4.1 ng/cm^2/h
same,Skin Flux,[3]; solvent: Isostearic acid (ISA),19.4 ± 3.2 ng/cm^2/h
same,Skin Flux,[3]; solvent: Light mineral oil,31.2 ± 3.4 ng/cm^2/h
same,Skin Flux,[3]; solvent: Olive oil,13.6 ± 3.3 ng/cm^2/h
same,Avg. Flux,"[3]; solvent: PG + ISA (Ratio of PG:ISA ranging from 200:1 to 1:1), value is for 9:1 mixture, human epidermal membrane",0.8 ± 0.2 μg/cm2/h
same,Skin Flux,[3]; solvent: Propylene glycol/ISA (9:1),764.7 ± 193.9 ng/cm^2/h
same,Skin Flux,"[3]; solvent: Propylene glycol, 200 mcl",3.8 ± 0.4 ng/cm^2/h
C[C@H]1C[C@H]2[C@@H]3CCC4=CC(=O)C=C[C@]4(C)[C@@]3(F)[C@@H](O)C[C@]2(C)[C@@]1(O)C(=O)CCl [Clobetasol],Estimated Therapeutically sufficient flux,[1]; [6],0.05 μg/cm^2/h
O=C(O)Cc1ccccc1Nc1c(Cl)cccc1Cl [Diclofenac],Estimated Therapeutically sufficient flux,[1]; [6],1 μg/cm^2/h
same,duration over which steady-state delivery is shown,[4],28 h
same,steady state flux in solid gel-forming formulation compared with flux-enabling non-volatile solvent alone,"[4]; formulation (Example 16) tested on human epidermal membrane, solvent on hairless mouse skin",lower
"CC(C)Cn1cnc2c(N)nc3ccccc3c21 [Imiquimod, imiquimod]",steady state flux in solid gel-forming formulation compared with flux-enabling non-volatile solvent alone,[2]; hairless mouse skin,unchanged
same,Skin Flux,[2]; [12],0 μg/cm^2/h
same,Skin Flux,[2]; [8],0.30 ± 0.06 μg/cm^2/h
same,Skin Flux,[2]; [13],0.05 ± 0.02 μg/cm^2/h
same,Skin Flux,[2]; [14],0.30 ± 0.05 μg/cm^2/h
same,Skin Flux,"[2]; non-volatile solvent system: Tween 60 (polyoxyethylene sorbitan monostearate), hairless mouse skin",0.02 ± 0.01 μg/cm^2/h
"CC(C(=O)O)c1cccc(C(=O)c2ccccc2)c1 (stereo not shown) [Ketoprofen, ketoprofen]",Estimated Therapeutically sufficient flux,[1]; [6],16 μg/cm^2/h
same,Estimated Therapeutically sufficient flux,"[1]; steady state flux of marketed product through hairless mouse or human epidermal membrane, method of Example 1, estimate, listed as ketoprofen",about 16 μg/cm^2/h
same,steady state flux in solid gel-forming formulation compared with flux-enabling non-volatile solvent alone,[2]; hairless mouse skin,lower
same,Avg. Flux,"[2]; high flux-enabling non-volatile solvent: Propylene glycol, hairless mouse skin",90 ± 50 μg/cm2/h
same,Skin Flux,[2]; [12],2 ± 1 μg/cm^2/h
same,Skin Flux,[2]; [9],180 ± 20 μg/cm^2/h
same,Skin Flux,[2]; [10],5 ± 2 μg/cm^2/h
same,Skin Flux,[2]; [13],90 ± 50 μg/cm^2/h
same,Skin Flux,[2]; [14],15 ± 3 μg/cm^2/h
same,Average Flux,[2]; [11],5 ± 2 μg/cm2/hr
same,Average Flux,"[2]; non-volatile solvent: Span 20, hairless mouse skin",15 ± 3 μg/cm2/hr
"CCCN1CCCC[C@H]1C(=O)Nc1c(C)cccc1C [Ropivacaine, ropivacaine]",Estimated Therapeutically sufficient flux,[1]; Estimated flux based on known potency relative to lidocaine,5 μg/cm^2/h
same,Estimated Therapeutically sufficient flux,"[1]; Estimated flux based on known potency relative to lidocaine, listed as ropivacaine base",about 5 μg/cm^2/h
same,duration over which steady-state delivery is shown,[4],30 h
same,steady state flux in solid gel-forming formulation compared with flux-enabling non-volatile solvent alone,[2]; hairless mouse skin,higher
same,Avg. Flux,"[2]; high flux-enabling non-volatile solvent: ISA, hairless mouse skin",11 ± 2 μg/cm2/h
same,Avg. Flux,"[2]; high flux-enabling non-volatile solvent: Span 20, hairless mouse skin",26 ± 8 μg/cm2/h
same,Skin Flux,[2]; [12],1.2 ± 0.7 μg/cm^2/h
same,Skin Flux,[2]; [8],11 ± 2 μg/cm^2/h
same,Skin Flux,"[2]; non-volatile solvent system: Mineral oil, hairless mouse skin",8.9 ± 0.6 μg/cm^2/h
same,Skin Flux,[2]; [14],26 ± 8 μg/cm^2/h
same,Skin Flux,"[2]; non-volatile solvent system: Tween 20 (polyoxyethylene sorbitan monolaurate), hairless mouse skin",2.4 ± 0.1 μg/cm^2/h
same,Average Flux,"[2]; non-volatile solvent: Glycerol, hairless mouse skin",1.2 ± 0.7 μg/cm2/hr
same,Average Flux,"[2]; non-volatile solvent: Mineral oil, hairless mouse skin",8.9 ± 0.6 μg/cm2/hr
"C[C@]12CC[C@H]3[C@@H](CCC4=CC(=O)CC[C@@]43C)[C@@H]1CC[C@@H]2O [Testosterone, testosterone]",Estimated Therapeutically sufficient flux,[5],0.8 μg/cm^2/h
O=C(O)Cc1ccccc1Nc1c(Cl)cccc1Cl [diclofenac acid],Skin Flux,[2]; [7],7 ± 3 μg/cm^2/h
same,Skin Flux,[2]; [12],0 μg/cm^2/h
same,Skin Flux,[2]; [15],8 ± 3 μg/cm^2/h
same,Skin Flux,[2]; [13],5 ± 2 μg/cm^2/h
same,Skin Flux,[2]; [14],3 ± 1 μg/cm^2/h
same,steady state flux relative to currently available marketed products,[2]; [16],no more than 10 times
O=C(O)Cc1ccccc1Nc1c(Cl)cccc1Cl [diclofenac sodium],Skin Flux,[2]; [7],14 ± 4 μg/cm^2/h
same,Skin Flux,[2]; [12],1.7 ± 0.3 μg/cm^2/h
same,Skin Flux,[2]; [15],13 ± 3 μg/cm^2/h
same,Skin Flux,[2]; [13],30 ± 30 μg/cm^2/h
same,Skin Flux,[2]; [14],98 ± 20 μg/cm^2/h
same,steady state flux relative to flux value for glycerol,[2]; [16],at least 10 times
